Laboratory results from patent US8992945B2, “Supramacromolecular polymer complexes providing controlled nitric oxide release for healing wounds” (University of Toronto, priority 2007, dated 2015).

Assays:
[1] = Kinetics of NO decomposition from RSNOs in aqueous medium (UV-Vis absorbance at 545 nm); format: physicochemical; details: for NO decomposition rate (order of decay slopes): 0.1 N HCl, 22° C., similar initial solution concentrations, FIG. 5
Procedure: In this invention, GSHEE and phytochelatin are being used for the first time as NO donors. […] Their stability in aqueous medium was explored using the UV-Vis Spectrophotometer. Solutions of all RSNOs for this stability study were synthesized according to Example 1. Their decomposition kinetics in these solutions at room temperature was obtained from the time dependent absorbance changes at 545 nm in time intervals of 10 min.
A good linearity is obtained for all three curves, from the decay slopes, it can be seen that NO decomposition rate decreases in the order of GSNO>S-Nitroso-GSHEE>S-nitroso-PC5.

[2] = NO endogenously synthesized by vascular endothelial cells; cited from earlier work

SMILES	NO decomposition rate (order of decay slopes) [1]	biological half life [2] [sec]	NO dissociation from GSNO ([1]; acidic and neutral medium, room condition (22° C.), FIG. 1)
CCOC(=O)CNC(=O)C(CSN=O)NC(=O)CCC(N)C(=O)O (stereo not shown) [S-Nitroso-GSHEE]	GSNO>S-Nitroso-GSHEE>S-nitroso-PC5	–	–
[N]=O [NO, nitric oxide]	–	≤ 5	–
N[C@@H](CCC(=O)N[C@@H](CSN=O)C(=O)NCC(=O)O)C(=O)O [GSNO, S-nitrosoglutathione]	GSNO>S-Nitroso-GSHEE>S-nitroso-PC5	–	continuously dissociates
